Source: US10246498B2, “Genetically encoded histone reporter allele constructs” (THE JOHNS HOPKINS UNIVERSITY, priority 2014, dated 2019)

Key:
[1] = test system: H3K4 trimethylation activity in MEFs; assay: H3K4me3 indicator in murine embryonic fibroblasts from Kmt2d+/βGeo and Kmt2d+/+ mice; assay type: cell-based, mouse
Text: (§1) An H3K4 trimethylation reporter was also created (FIG. 5B). This reporter is based on the H3 tail on one end and the TBP associated factor III (TAFIII) […] on the other end; the TAFIII […] only identifies and binds to trimethylated K4 on H3. When the H3K4 site gets trimethylated, the TAFIII […] can bind to the modified H3 tail and bring the two parts of the separated GFP in close proximity. The activity of the epigenetic modification system can be quantified through fluorescence.
Epigenetic reporter alleles were synthesized (OriGene, Rockville, Md.) using published sequences for component elements (Baird et al. (1999) Proc. Natl. Acad. Sci. 96:11241-6; Souslova et al. (2007) BMC Biotechnol. 7:37). Single nucleotide mutations were created using the QuickChange Lightening kit (Agilent Technologies Inc, Santa Clara, Calif.). For H4ac indicator, K5R, K8R, K12R, K16R and K20R (MUT indicator) were introduced. For H3K4me3 indicator, K4Q and D890A/W891A and M882A (three separate constructs) were introduced. For transient transfections, mouse embryonic fibroblasts (see below) were transfected with Fugene HD (Promega, Madison, Wis.), 48 hours prior to FACS. […] For drug stimulation, drug was added to the media 24 hours prior to FACS. For stable transfections in T293 (American Type Culture Collection) cells, 10 μg/ml of Blastocidin (Life Technologies, Carlsbad, Calif.) was added to the media for several weeks. For stable transfection in MEFs, the reporter was transferred to a ViraPower Lentiviral Expression System (Life Technologies, Carlsbad, Calif.). After selection with Blastocidin, the drug of interest was added 24 hours prior to FACS. SAHA, AR-42 and MS275 were purchased from Selleck (Selleck Chemicals, Houston, Tex.). […] FACS data were analyzed using FlowJo (Tree Star Inc, Ashland, Oreg.). A plasmid expressing HDAC3 was acquired from Addgene (Cambridge, Mass., plasmid 13819) and transfected into a stable cell line carrying the H4 acetyl reporter allele.

H3K4 trimethylation = H3K4 trimethylation (H3K4me3) reporter allele, GFP fluorescence by FACS; assay type: cell-based; settings: FIG. 18F
Text: as §1
Epigenetic reporter alleles were synthesized (OriGene, Rockville, Md.) using published sequences for component elements (Baird et al. (1999) Proc. Natl. Acad. Sci. 96:11241-6; Souslova et al. (2007) BMC Biotechnol. 7:37). Single nucleotide mutations were created using the QuickChange Lightening kit (Agilent Technologies Inc, Santa Clara, Calif.). […] FACS data were analyzed using FlowJo (Tree Star Inc, Ashland, Oreg.). […]
Epigenetic reporter systems were created that monitor either H4 acetylation or H3K4 trimethylation machinery activity in an effort to determine whether there is an ongoing activity deficiency in cells from Kmt2d^+/βGeo mice (FIG. 18A). Both reporter alleles encode halves of green fluorescent protein separated by a flexible linker region (Baird et al. (1999) Proc. Natl. Acad. Sci. 96: 11241-6) with a histone tail and a histone reader at the N- and C-termini, respectively. […]

`CC(C)[C@H](C(=O)Nc1ccc(C(=O)NO)cc1)c1ccccc1` [AR-42] was tested, and the “dose at which Kmt2d+/βGeo MEFs achieve untreated wild-type levels of activity” value ([1]; Kmt2d+/βGeo MEFs) was 5 µM, the H3K4 trimethylation activity ([1]; Kmt2d+/βGeo cells (MEFs)) was “enhanced” and the “H3K4me3 indicator activity in MEFs” value ([1]; both genotypes (Kmt2d+/+ and Kmt2d+/βGeo)) was “dose-dependent response”. The cell numbers (H3K4 trimethylation; higher doses) was “decreased cell numbers at higher doses” and the “response of the H3K4me3 indicator” value (H3K4 trimethylation; increasing levels of drug) was “dose dependent response”.
